Laboratory results published in patent US9630977B2, “Cephalosporin derivatives and pharmaceutical compositions thereof” (Legochem Biosciences, Inc., priority 2011, dated 2017).
In brackets after ≈: the same amount, converted by molar mass.

test system: A. baumannii 49; assay: In vitro antibacterial activity test (broth microdilution); type: cell-based; conditions: Acinetobacter baumannii; A. baumannii 49; read-out: MIC90
Method in brief: (§1)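 Stocks at 10,240 ug/mL in DMSO, serially diluted in DMSO then water to final 0.0626–128 ug/mL (2.5% V/V DMSO). CLSI broth microdilution; MIC90, ug/mL.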

| SMILES | MIC90 |
| --- | --- |
| CC(C)(O/N=C(\C(=O)N[C@@H]1C(=O)N2C(C(=O)[O-])=C(C[n+]3cnc(N)c(NC(=O)c4cc(=O)c(O)cn4O)c3)CSC12)c1nc(N)sc1Cl)C(=O)O (stereo partly shown) [Compound 22] | 16 µg/mL (≈ 20.9 µM) |

test system: P. aeruginosa 6065Y; assay: as above; type: cell-based; conditions: Pseudomonas aeruginosa, read-out: MIC90
Method in brief: as §1

| SMILES | MIC90 |
| --- | --- |
| CC(C)(O/N=C(\C(=O)N[C@@H]1C(=O)N2C(C(=O)[O-])=C(C[n+]3cnc(N)c(NC(=O)c4cc(=O)c(O)cn4O)c3)CSC12)c1nc(N)sc1Cl)C(=O)O (stereo partly shown) [Compound 22] | 2 µg/mL (≈ 2.61 µM) |

test system: E. cloacae β19; assay: as above; type: cell-based; conditions: Enterobacter cloacae, read-out: MIC90
Method in brief: as §1

| SMILES | MIC90 |
| --- | --- |
| CC(C)(O/N=C(\C(=O)N[C@@H]1C(=O)N2C(C(=O)[O-])=C(C[n+]3cnc(N)c(NC(=O)c4cc(=O)c(O)cn4O)c3)CSC12)c1nc(N)sc1Cl)C(=O)O (stereo partly shown) [Compound 22] | 32 µg/mL (≈ 41.8 µM) |

test system: M. catarrhalis 2524; assay: as above; type: cell-based; conditions: Moraxella catarrhalis; M. catarrhalis 2524; read-out: MIC90
Method in brief: as §1

| SMILES | MIC90 |
| --- | --- |
| CC(C)(O/N=C(\C(=O)N[C@@H]1C(=O)N2C(C(=O)[O-])=C(C[n+]3cnc(N)c(NC(=O)c4cc(=O)c(O)cn4O)c3)CSC12)c1nc(N)sc1Cl)C(=O)O (stereo partly shown) [Compound 22] | 0.5 µg/mL (≈ 0.653 µM) |

test system: K. pneumoniae β9; assay: as above; type: cell-based; conditions: Klebsiella pneumoniae, K. pneumoniae β9; read-out: MIC90
Method in brief: as §1

| SMILES | MIC90 |
| --- | --- |
| CC(C)(O/N=C(\C(=O)N[C@@H]1C(=O)N2C(C(=O)[O-])=C(C[n+]3cnc(N)c(NC(=O)c4cc(=O)c(O)cn4O)c3)CSC12)c1nc(N)sc1Cl)C(=O)O (stereo partly shown) [Compound 22] | 8 µg/mL (≈ 10.5 µM) |

test system: P. aeruginosa 40; assay: as above; type: cell-based; conditions: Pseudomonas aeruginosa, 40, P. aeruginosa 40; read-out: MIC90
Method in brief: as §1

| SMILES | MIC90 |
| --- | --- |
| CC(C)(O/N=C(\C(=O)N[C@@H]1C(=O)N2C(C(=O)[O-])=C(C[n+]3cnc(N)c(NC(=O)c4cc(=O)c(O)cn4O)c3)CSC12)c1nc(N)sc1Cl)C(=O)O (stereo partly shown) [Compound 22] | 2 µg/mL (≈ 2.61 µM) |

test system: E. coli AG100; assay: as above; type: cell-based; conditions: Escherichia coli, AG100, E. coli AG100; read-out: MIC90
Method in brief: as §1

| SMILES | MIC90 |
| --- | --- |
| CC(C)(O/N=C(\C(=O)N[C@@H]1C(=O)N2C(C(=O)[O-])=C(C[n+]3cnc(N)c(NC(=O)c4cc(=O)c(O)cn4O)c3)CSC12)c1nc(N)sc1Cl)C(=O)O (stereo partly shown) [Compound 22] | 2 µg/mL (≈ 2.61 µM) |

test system: P. aeruginosa 37; assay: as above; type: cell-based; conditions: Pseudomonas aeruginosa, 37, P. aeruginosa 37; read-out: MIC90
Method in brief: as §1

| SMILES | MIC90 |
| --- | --- |
| CC(C)(O/N=C(\C(=O)N[C@@H]1C(=O)N2C(C(=O)[O-])=C(C[n+]3cnc(N)c(NC(=O)c4cc(=O)c(O)cn4O)c3)CSC12)c1nc(N)sc1Cl)C(=O)O (stereo partly shown) [Compound 22] | 1 µg/mL (≈ 1.31 µM) |

test system: K. pneumoniae 2011E; assay: as above; type: cell-based; conditions: Klebsiella pneumoniae, 2011E, K. pneumoniae 2011E; read-out: MIC90
Method in brief: as §1

| SMILES | MIC90 |
| --- | --- |
| CC(C)(O/N=C(\C(=O)N[C@@H]1C(=O)N2C(C(=O)[O-])=C(C[n+]3cnc(N)c(NC(=O)c4cc(=O)c(O)cn4O)c3)CSC12)c1nc(N)sc1Cl)C(=O)O (stereo partly shown) [Compound 22] | 16 µg/mL (≈ 20.9 µM) |

test system: K. pneumoniae β13; assay: as above; type: cell-based; conditions: Klebsiella pneumoniae, K. pneumoniae β13; read-out: MIC90
Method in brief: as §1

| SMILES | MIC90 |
| --- | --- |
| CC(C)(O/N=C(\C(=O)N[C@@H]1C(=O)N2C(C(=O)[O-])=C(C[n+]3cnc(N)c(NC(=O)c4cc(=O)c(O)cn4O)c3)CSC12)c1nc(N)sc1Cl)C(=O)O (stereo partly shown) [Compound 22] | 2 µg/mL (≈ 2.61 µM) |

test system: K. pneumoniae β11; assay: as above; type: cell-based; conditions: Klebsiella pneumoniae; K. pneumoniae β11; read-out: MIC90
Method in brief: as §1

| SMILES | MIC90 |
| --- | --- |
| CC(C)(O/N=C(\C(=O)N[C@@H]1C(=O)N2C(C(=O)[O-])=C(C[n+]3cnc(N)c(NC(=O)c4cc(=O)c(O)cn4O)c3)CSC12)c1nc(N)sc1Cl)C(=O)O (stereo partly shown) [Compound 22] | 64 µg/mL (≈ 83.6 µM) |

test system: A. baumannii 52; assay: as above; type: cell-based; conditions: Acinetobacter baumannii; A. baumannii 52; read-out: MIC90
Method in brief: as §1

| SMILES | MIC90 |
| --- | --- |
| CC(C)(O/N=C(\C(=O)N[C@@H]1C(=O)N2C(C(=O)[O-])=C(C[n+]3cnc(N)c(NC(=O)c4cc(=O)c(O)cn4O)c3)CSC12)c1nc(N)sc1Cl)C(=O)O (stereo partly shown) [Compound 22] | 2 µg/mL (≈ 2.61 µM) |

test system: P. aeruginosa 1912E; assay: as above; type: cell-based; conditions: Pseudomonas aeruginosa, 1912E, read-out: MIC90
Method in brief: as §1

| SMILES | MIC90 |
| --- | --- |
| CC(C)(O/N=C(\C(=O)N[C@@H]1C(=O)N2C(C(=O)[O-])=C(C[n+]3cnc(N)c(NC(=O)c4cc(=O)c(O)cn4O)c3)CSC12)c1nc(N)sc1Cl)C(=O)O (stereo partly shown) [Compound 22] | 2 µg/mL (≈ 2.61 µM) |

test system: P. aeruginosa 43; assay: as above; type: cell-based; conditions: Pseudomonas aeruginosa; P. aeruginosa 43; read-out: MIC90
Method in brief: as §1

| SMILES | MIC90 |
| --- | --- |
| CC(C)(O/N=C(\C(=O)N[C@@H]1C(=O)N2C(C(=O)[O-])=C(C[n+]3cnc(N)c(NC(=O)c4cc(=O)c(O)cn4O)c3)CSC12)c1nc(N)sc1Cl)C(=O)O (stereo partly shown) [Compound 22] | 0.5 µg/mL (≈ 0.653 µM) |

test system: K. pneumoniae β10; assay: as above; type: cell-based; conditions: Klebsiella pneumoniae; K. pneumoniae β10; read-out: MIC90
Method in brief: as §1

| SMILES | MIC90 |
| --- | --- |
| CC(C)(O/N=C(\C(=O)N[C@@H]1C(=O)N2C(C(=O)[O-])=C(C[n+]3cnc(N)c(NC(=O)c4cc(=O)c(O)cn4O)c3)CSC12)c1nc(N)sc1Cl)C(=O)O (stereo partly shown) [Compound 22] | 1 µg/mL (≈ 1.31 µM) |

test system: K. pneumoniae β14; assay: as above; type: cell-based; conditions: Klebsiella pneumoniae, read-out: MIC90
Method in brief: as §1

| SMILES | MIC90 |
| --- | --- |
| CC(C)(O/N=C(\C(=O)N[C@@H]1C(=O)N2C(C(=O)[O-])=C(C[n+]3cnc(N)c(NC(=O)c4cc(=O)c(O)cn4O)c3)CSC12)c1nc(N)sc1Cl)C(=O)O (stereo partly shown) [Compound 22] | 128 µg/mL (≈ 167 µM) |

test system: E. coli β4; assay: as above; type: cell-based; conditions: Escherichia coli, read-out: MIC90
Method in brief: as §1

| SMILES | MIC90 |
| --- | --- |
| CC(C)(O/N=C(\C(=O)N[C@@H]1C(=O)N2C(C(=O)[O-])=C(C[n+]3cnc(N)c(NC(=O)c4cc(=O)c(O)cn4O)c3)CSC12)c1nc(N)sc1Cl)C(=O)O (stereo partly shown) [Compound 22] | 32 µg/mL (≈ 41.8 µM) |

test system: A. calcoaceticus ATCC15473; assay: as above; type: cell-based; conditions: Acinetobacter calcoaceticus; A. calcoaceticus ATCC15473; read-out: MIC90
Method in brief: as §1

| SMILES | MIC90 |
| --- | --- |
| CC(C)(O/N=C(\C(=O)N[C@@H]1C(=O)N2C(C(=O)[O-])=C(C[n+]3cnc(N)c(NC(=O)c4cc(=O)c(O)cn4O)c3)CSC12)c1nc(N)sc1Cl)C(=O)O (stereo partly shown) [Compound 22] | 0.5 µg/mL (≈ 0.653 µM) |

test system: A. baumannii 46; assay: as above; type: cell-based; conditions: Acinetobacter baumannii; A. baumannii 46; read-out: MIC90
Method in brief: as §1

| SMILES | MIC90 |
| --- | --- |
| CC(C)(O/N=C(\C(=O)N[C@@H]1C(=O)N2C(C(=O)[O-])=C(C[n+]3cnc(N)c(NC(=O)c4cc(=O)c(O)cn4O)c3)CSC12)c1nc(N)sc1Cl)C(=O)O (stereo partly shown) [Compound 22] | 128 µg/mL (≈ 167 µM) |
